This is an account of results in DBAASP.

Common to all, as to assay: ≥ marks a high value that may be exact or a test limit, other limits are often not marked, values filed in µg/mL are converted to µM
In test [1] the test system is Acinetobacter baumannii AL1851-ΔLpxA.
In test [2] the test system is Acinetobacter baumannii ATCC 19606.
Test [3] has as its system Acinetobacter baumannii Al1852-ΔLpxD.
The test system of test [4] is Citrobacter freundii DSM 30029.
In test [5] the test system is Escherichia coli DSM 1103.
The test system of test [6] is Klebsiella pneumoniae DSM 789.
In test [7] the test system is Pseudomonas aeruginosa DSM 1117.
Test [8] has as its system Salmonella enterica DSM 17058.
In test [9] the test system is Shigella sonnei DSM 5570.
For test [10], the system named is Staphylococcus aureus DSM 11729.
Test [11] has as its system Staphylococcus epidermidis DSM 28319.
Test [12] has as its system Escherichia coli MG1655.
Test [13] has as its system Pseudomonas aeruginosa PA7.
The subject of test [14] is Pseudomonas aeruginosa PAO1.
Test [15] relates to Staphylococcus aureus NCTC 8325.
The subject of test [16] is Escherichia coli K-12.
Test [17] has as its system Pseudomonas aeruginosa PA214.
For test [18], the system named is Pseudomonas aeruginosa PA330.
Test [19] has as its system Alcaligenes faecalis ATCC 8750.
For test [20], the system named is Aspergillus niger.
In test [21] the test system is Bacillus megaterium ATCC 10778.
For test [22], the system named is Bacillus subtilis ATCC 6633.
Test [23] relates to Beauveria bassiana.
For test [24], the system named is Candida albicans MDM8.
Test [25] relates to Candida tropicalis IOC 4560.
Test [26] has as its system Enterobacter cloacae beta-12.
Test [27] concerns Escherichia coli D31.
Test [28] has as its system Escherichia coli SBS 363.
The subject of test [29] is Micrococcus luteus A270.
The test system of test [30] is Microsporum canis MW768151.
Test [31] has as its system Microsporum canis.
For test [32], the system named is Proteus mirabilis.
Test [33] relates to Pseudomonas aeruginosa ATCC 27853.
Test [34] concerns Saccharomyces cerevisiae PM340.
The subject of test [35] is Salmonella enterica subsp. arizonae ATCC 13314.
Test [36] deals with Salmonella enterica subsp. enterica serovar Typhimurium ATCC 14028.
Test [37] deals with Serratia marcescens ATCC 4112.
Test [38] relates to Staphylococcus aureus ATCC 29213.
The test system of test [39] is Staphylococcus cohnii MW767053.
The subject of test [40] is Staphylococcus haemolyticus.
The test system of test [41] is Staphylococcus pseudintermedius MW767056.
Test [42] relates to Staphylococcus pseudintermedius.
The test system of test [43] is Staphylococcus sciuri.
Test [44] deals with Staphylococcus simulans.
The subject of test [45] is Trichophyton mentagrophytes.
Test [46] deals with Pseudomonas aeruginosa NCIB 10421.

≈ marks a conversion by molar mass, not a printed value. Where only a bound is given, the exact number is not on record here.

On to `CC[C@H](C)[C@H](NC(=O)[C@H](CC(=O)O)NC(=O)[C@H](Cc1c[nH]c2ccccc12)NC(=O)[C@H](CCCCN)NC(=O)[C@@H]1CCCN1C(=O)[C@H](CC(C)C)NC(=O)[C@H](CCSC)NC(=O)[C@H](Cc1ccc(O)cc1)NC(=O)[C@H](CC(C)C)NC(=O)[C@H](CC(N)=O)NC(=O)[C@@H](NC(=O)CN)[C@@H](C)O)C(=O)N1CCC[C@H]1C(N)=O` [GTNLYMLPKWDIP], for which the MIC in test [1] is 16 µM (≈ 24.7 µg/mL); in test [2], 32 µM (≈ 49.5 µg/mL); in test [3], not below 32 µM; in test [4], 4 µM (≈ 6.19 µg/mL); in test [5] it was 8 µM (≈ 12.4 µg/mL); in test [6] it was not below 32 µM. Besides, the MIC in test [7] was 1 µM (≈ 1.55 µg/mL); in test [8], 16 µM (≈ 24.7 µg/mL); in test [9], 2 µM (≈ 3.09 µg/mL); in test [10], 16 µM (≈ 24.7 µg/mL); in test [11], 0.5 µM (≈ 0.773 µg/mL).
Take `CC[C@H](C)[C@H](N)C(=O)N[C@@H](CCCCN)C(=O)N[C@H](C(=O)N1CCC[C@H]1C(=O)N[C@@H](C)C(=O)N[C@H](C(=O)N[C@H](C(=O)N[C@@H](CCCCN)C(=O)N[C@@H](CC(=O)O)C(=O)N[C@H](C(=O)N[C@@H](CCC(N)=O)C(=O)N[C@@H](CCCCN)C(=O)N[C@@H](CCCCN)C(=O)N[C@H](C(=O)N[C@@H](C)C(=O)N[C@@H](CCCCN)C(=O)NCC(=O)N[C@H](C(=O)N[C@H](C(=O)N[C@@H](CO)C(=O)N[C@H](C(=O)N[C@H](C(=O)N[C@@H](C)C(=O)N[C@@H](CC(=O)O)C(=O)N[C@@H](C)C(=O)N[C@@H](CC(C)C)C(=O)N[C@@H](CO)C(=O)N[C@@H](CCCCN)C(=O)N[C@@H](CO)C(=O)O)C(C)C)[C@@H](C)O)[C@@H](C)CC)C(C)C)C(C)C)[C@@H](C)O)C(C)C)[C@@H](C)CC)C(C)C` [IKVPAIVKDTQKKVAKGVISTVADALSKS]: the MIC in [12] is not below 512 µM; in test [13], not below 512 µM; in test [14] it was more than 512 µM; in test [15], not below 512 µM.
As for `CC(C)C[C@H](NC(=O)[C@H](C)NC(=O)[C@H](CCCCN)NC(=O)[C@H](Cc1ccccc1)NC(=O)[C@H](CC(C)C)NC(=O)[C@H](CCCCN)NC(=O)[C@H](C)NC(=O)[C@H](Cc1c[nH]c2ccccc12)NC(=O)[C@H](C)NC(=O)[C@H](CCCCN)NC(=O)[C@H](CC(C)C)NC(=O)[C@H](Cc1ccccc1)NC(=O)[C@H](CCCCN)NC(=O)[C@H](CCCCN)NC(=O)[C@H](CC(C)C)NC(=O)[C@H](C)NC(=O)[C@@H](N)CCCCN)C(N)=O` [KALKKFLKAWAKLFKAL], the MIC in test [16] was 1.6 µM (≈ 3.21 µg/mL); in test [17], 3.1 µM (≈ 6.21 µg/mL); in test [18] it was 6.3 µM (≈ 12.6 µg/mL); in test [14] it was 3.1 µM (≈ 6.21 µg/mL).
As to `CC(C)[C@H](N)C(=O)N[C@@H](C)C(=O)N[C@@H](CCC(=O)O)C(=O)N[C@@H](C)C(=O)N[C@@H](CCCN=C(N)N)C(=O)N[C@@H](CCC(N)=O)C(=O)NCC(=O)N[C@@H](CO)C(=O)N[C@@H](Cc1ccccc1)C(=O)N[C@@H](CO)C(=O)N[C@@H](Cc1ccc(O)cc1)C(=O)O` [VAEARQGSFSY], the MIC was found to be 12.5 µM (≈ 15.2 µg/mL) in test [19]; 25 µM (≈ 30.3 µg/mL) in test [20]; 12.5 µM (≈ 15.2 µg/mL) in [21]; 25 µM (≈ 30.3 µg/mL) in [22]; 25 µM (≈ 30.3 µg/mL) in test [23]; 25 µM (≈ 30.3 µg/mL) in test [24]. Besides, the MIC in [25] was 25 µM (≈ 30.3 µg/mL); in test [26] it was 25 µM (≈ 30.3 µg/mL); in test [27] it was 12.5 µM (≈ 15.2 µg/mL); in test [28], 25 µM (≈ 30.3 µg/mL); in test [29], 6.24 µM (≈ 7.58 µg/mL); in test [30] it was 0.412 µM (≈ 0.5 µg/mL). In addition, the MIC in test [31] is 0.824 µM (≈ 1 µg/mL); in [32], not below 211 µM; in [33] it was 12.5 µM (≈ 15.2 µg/mL); in test [34], 25 µM (≈ 30.3 µg/mL); in test [35], 25 µM (≈ 30.3 µg/mL); in test [36], 12.5 µM (≈ 15.2 µg/mL). Moreover, the minimal inhibitory concentration (MIC) in [37] was 25 µM (≈ 30.3 µg/mL); in test [38] it was 6.24 µM (≈ 7.58 µg/mL); in test [39] it was not below 211 µM; in test [40], not below 211 µM; in test [41], not below 105 µM; in test [42], not below 105 µM. Besides, the MIC in test [43] was not below 211 µM; in [44] it was not below 105 µM; in [45], 0.412 µM (≈ 0.5 µg/mL).
With `CC[C@H](C)[C@H](NC(=O)CNC(=O)[C@H](CCC(=O)O)NC(=O)[C@H](Cc1c[nH]c2ccccc12)NC(=O)[C@@H](NC(=O)[C@H](CCCCN)NC(=O)CNC(=O)[C@H](CC(C)C)NC(=O)[C@@H](N)Cc1c[nH]c2ccccc12)[C@@H](C)CC)C(=O)N[C@@H](CCCCN)C(=O)N[C@@H](CO)C(=O)N[C@@H](CC(C)C)C(=O)N[C@@H](Cc1ccccc1)C(N)=O` [WLGKIWEGIKSLF], the MIC is 0.78 µM (≈ 1.23 µg/mL) in test [21]; 0.78 µM (≈ 1.23 µg/mL) in test [22]; 3.13 µM (≈ 4.93 µg/mL) in test [24]; 1.56 µM (≈ 2.46 µg/mL) in test [25]; 12.5 µM (≈ 19.7 µg/mL) in test [26]; 1.56 µM (≈ 2.46 µg/mL) in test [28]. Besides, the MIC in [29] was 0.78 µM (≈ 1.23 µg/mL); in test [46] it was 12.5 µM (≈ 19.7 µg/mL); in test [37], 0.78 µM (≈ 1.23 µg/mL); in test [38] it was 1.6 µM (≈ 2.52 µg/mL).

In general, MIC refers to the lowest concentration found to suppress growth.
